Experimental findings from patent US20030114449A1, “SACCHARIN DERIVATIVES AS ORALLY ACTIVE ELASTASE INHIBITORS” (priority 1999, published 2003) are described below.

For the assay, the target named is T1, human leukocyte elastase enzyme (Homo sapiens, UniProt P08246).
T1 sequence (P08246 30-267): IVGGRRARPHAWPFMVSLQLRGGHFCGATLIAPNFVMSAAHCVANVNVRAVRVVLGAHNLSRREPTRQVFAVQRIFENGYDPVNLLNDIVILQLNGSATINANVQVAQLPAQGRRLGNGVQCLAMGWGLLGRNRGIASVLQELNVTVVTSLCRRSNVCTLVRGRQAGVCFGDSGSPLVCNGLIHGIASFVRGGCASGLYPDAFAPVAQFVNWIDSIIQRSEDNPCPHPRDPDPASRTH
As to the kind of experiment: Inhibition of acute lung damaging effect caused by human leukocyte elastase enzyme, determined on mice (BAL haemoglobin). Format: in vivo, mouse. The following applies: for inhibition %: male NMRI mice, p.o. dose 10 mg/bw kg, 60 minutes before intratracheal human leukocyte elastase, haemorrhagic response (BAL haemoglobin, 540 nm) 3 hours later; for ED50: mouse, po, mice, per os, elastase-induced lung haemorrhage. As for the experimental part:
Inhibition of Acut Lung Damaging Effect Caused by Human Leukocyte Elastase Enzyme, Determined on Mice.
Description of the method:
Male NMRI mice approximately 6-8 week old of age, weighing between 22-26 grams were dosed per os with the 0.1% (w/v) solution in carboxymethyl cellulose of the investigated compounds of the general formula (I) or of the known comparatory compound, respectively. 60 minutes later the mice were given intratracheally 12.5 international unit of human leukocyte elastase enzyme dissolved in 25.0 μL sterile physiological sodium chloride solution.
3 hours later the animals were euthanized with an overdose of urethane and into the lung 1 ml of physiological salt solution was introduced, for washing.
The trachea was exposed at wound by opening suture clips and a small incision made for insertion of a polyethylene cannula secured in place with surgical thread. An 18 gauge×1½ inch needle, attached to an 1.00 mL syringe was inserted into the cannula, and 0.5 mL of air was withdrawn from the airways. One milliliter was then instilled into the airways. After it the chest was briefly and gently massaged. The syringe was removed from the cannula and the bronchoalveolar lavage (BAL) fluid allowed to drain into a 10.0 mL graduate to determine the total volume of lavage fluid retrievable from lungs while the animal was in a supine position. The instillation procedure mentioned above was repeated three times. Triton X100 was then added to the collected bronchoalveolar lavage fluid (final concentration, 0.2% v/v) to ensure cell disruption and the haemoglobin content was determined spectrophotometrically at 540 nm.
Effectiveness of the elastase enzyme inhibitory compound was determined on the basis of the haemorrhagic responses, according to the following formula:
% inhibition=[(VE−DE)/(VE−VS)]×100,
VE=mean absorbance of BAL fluids from the group pretreated orally only with vehicle but intratracheally with elastase;
DE=absorbance of each BAL fluid from animals pretreated orally with potential inhibitor compound, intratracheally with elastase;
VS=mean absorbance of BAL fluids from group pretreated orally with vehicle and intratracheally with sterile physiological salt solution.
For comparative compound the structurally most related known compound described in patent application EP-0626378A1 example 9E was used. Its synthesis is described above in the reference example.

For the compound `COc1cc(C(C)C)c2c(c1)S(=O)(=O)N(COc1cc(=O)n3cccc(OCCN4CCCC4)c3n1)C2=O` [EP-626378, Example 9E, 2-(9-(2-pyrrolidino-ethoxy)-4-oxo-4H-pyrido[1,2-a]pyrimidin-2-yl-oxymethyl)-4-isopropyl-6-methoxy-1,2-benzisothiazol-3(2H)one-1,1-dioxide, reference compound], the inhibition % was 15% and the ED50 (usually the dose at which the effect has come halfway, by size or by number of responders) is 23 mg/kg. Take `COc1cc(C(C)C)c2c(c1)S(=O)(=O)N(COc1cc(=O)n3cccc(OCCN4CCCCC4)c3n1)C2=O` [Example 3, 2(-9-(2-piperidino-ethoxy)-4-oxo-4H-pyrido[1,2-a]pyrimidin-2-yl-oxymethyl)-4-isopropyl-6-methoxy-1,2-benzisothiazol-3(2H)-one-1,1-dioxide]: the inhibition % worked out at 80% and the ED50 worked out at 2.6 mg/kg.

In the case of `COc1cc(C(C)C)c2c(c1)S(=O)(=O)N(COc1cc(=O)n3cccc(OCCN4CCCCC4)c3n1)C2=O.O=C(O)c1ccccc1` [Example 7, 2-(9-(2-piperidino-ethoxy)-4-oxo-4H-pyrido[1,2-a]pyrimidin-2-yl-oxymethyl)-4-isopropyl-6-methoxy-1,2-benzisothiazol-3(2H)-one-1,1-dioxide benzoate salt], the inhibition % was determined as 56%. `COc1cc(C(C)C)c2c(c1)S(=O)(=O)N(COc1cc(=O)n3cccc(OCCN4CCCCC4)c3n1)C2=O.O=C(O)CC(O)(CC(=O)O)C(=O)O` [Example 8, 2-(9-(2-piperidino-ethoxy)-4-oxo-4H-pyrido[1,2-a]pyrimidin-2-yl-oxymethyl)-4-isopropyl-6-methoxy-1,2-benzisothiazol-3(2H)-one-1,1-dioxide monocitrate salt] yielded an inhibition % of 70%.
